Measured values from article PMC11345836 (Journal of Medicinal Chemistry, 2024).
Values after ≈ are worked out from the molar mass of the structure shown. Read-outs that look alike come from different tables or passages of the source.

Columns and labels:
[1] = Rat liver microsome stability; settings: for microsomal CLint: rat, microsomes; for predicted hepatic clearance, rat: scaled from rat liver microsomes
[2] = rat, p.o. 10 mg/kg, fed
[3] = cited from earlier work
[4] = 0.3–10 μM; cited from earlier work
[5] = cited from earlier work; remark: listed apart in the source
[6] = 0.3–10 μM; cited from earlier work; remark: listed apart in the source
[7] = cited from earlier work; remark: listed apart in the source
[8] = Solubility of solid forms; assay type: physicochemical
[9] = NMR EXSY rotamer exchange kinetics; settings: for Rotamer exchange in EXSY: 300 ms mixing time at 298 K; for Torsion Rotation t1/2: extrapolated to 298 K
[10] = cited from earlier work; remark: listed apart in the source
[11] = 2–200 μM; cited from earlier work
[12] = 0.3–10 μM; cited from earlier work; remark: listed apart in the source
[13] = cited from earlier work; remark: listed apart in the source
[14] = Shake-flask LogD; assay type: physicochemical

COC(=O)N[C@H](C(=O)N1C[C@H](OC(F)(F)F)C[C@H]1C(=O)N[C@H](C#N)C[C@@H]1CCNC1=O)C(C)(C)C [Compound 5, Methyl ((S)-1-((2S,4R)-2-(((S)-1-cyano-2-((S)-2-oxopyrrolidin-3-yl)ethyl)carbamoyl)-4-(trifluoromethoxy)pyrrolidin-1-yl)-3,3-dimethyl-1-oxobutan-2-yl)carbamate]
microsomal CLint [1]: < 5.8 µL/min/mg | predicted hepatic clearance, rat [1]: < 11 mL/min/kg | Fa × Fg ([2]; amorphous, solution): 12.2 (11.4, 13.2) % | Oral F ([2]; amorphous, solution): 8.6 (8.0, 9.2) %

CC(C)(C)[C@H](NC(=O)C(F)(F)F)C(=O)N1C[C@H]2[C@@H]([C@H]1C(=O)N[C@H](C#N)C[C@@H]1CCNC1=O)C2(C)C [Compound 1, nirmatrelvir]
CLint,app, substrate depletion in HLM [3]: 28.8 µL/min/mg | predicted hepatic clearance, human ([3]; from substrate depletion in HLM): 6.3 mL/min/kg | fu,p monkey plasma [4]: 0.39–0.50 | predicted hepatic clearance, rats [5]: 5.8 mL/min/kg | fu,p human plasma [6]: 0.30–0.33 | observed CLp, rats [7]: 22.7 mL/min/kg | solubility ([8]; Form: Anhydrous): 1200 µg/mL (≈ 2.4 mM) | solubility ([8]; Form: MTBE): 7210 µg/mL (≈ 14.4 mM) | Energy of Rotation ([9]; Form: Anhydrous): 20.4 kcal/mol | Rotamer exchange in EXSY ([9]; Form: Anhydrous): No | Torsion Rotation t1/2 ([9]; Form: Anhydrous): 10.54 min | Energy of Rotation ([9]; Form: MTBE): 20.2 kcal/mol | Rotamer exchange in EXSY ([9]; Form: MTBE): No | Torsion Rotation t1/2 ([9]; Form: MTBE): 10.99 min | observed CLp, monkeys [10]: 15.8 mL/min/kg | fu,p dog plasma [11]: 0.024–0.69 | fu,p rat plasma [12]: 0.47–0.49 | predicted hepatic clearance, monkeys [13]: 25 mL/min/kg

Cc1cnc(C(=O)N[C@H]2CCCCC/C=C\[C@@H]3C[C@@]3(C(=O)NS(=O)(=O)C3CC3)NC(=O)[C@@H]3C[C@@H](Oc4nc5ccccc5c5ccccc45)CN3C2=O)cn1 [paritaprevir]
logD [14]: 3.1

Cc1cccc(C)c1OCC(=O)N[C@@H](Cc1ccccc1)[C@@H](O)C[C@H](Cc1ccccc1)NC(=O)[C@H](C(C)C)N1CCCNC1=O [lopinavir]
logD [14]: 3.8

CC(C)(C)[C@H](NC(=O)C(F)(F)F)C(=O)N1C[C@H](OC(F)F)C[C@H]1C(=O)N[C@H](C#N)C[C@@H]1CCNC1=O [Compound 6, (2S,4R)-N-((S)-1-Cyano-2-((S)-2-oxopyrrolidin-3-yl)ethyl)-4-(difluoromethoxy)-1-((S)-3,3-dimethyl-2-(2,2,2-trifluoroacetamido)butanoyl)pyrrolidine-2-carboxamide]
microsomal CLint [1]: < 5.8 µL/min/mg | predicted hepatic clearance, rat [1]: < 11 mL/min/kg | Fa × Fg ([2]; 50% ASD): 7.2 (7.3, 6.9) % | Oral F ([2]; 50% ASD): 4.2 (4.3, 4.1) % | Fa × Fg ([2]; crystalline, suspension): 20.2 (20.0, 20.4) %

COC(=O)N[C@H](C(=O)N1C[C@H](C(F)(F)F)C[C@H]1C(=O)N[C@H](C#N)C[C@@H]1CCCNC1=O)C(C)C [Compound 12, Methyl ((S)-1-((2S,4R)-2-(((S)-1-cyano-2-((S)-2-oxopiperidin-3-yl)ethyl)carbamoyl)-4-(trifluoromethyl)pyrrolidin-1-yl)-3-methyl-1-oxobutan-2-yl)carbamate]
microsomal CLint [1]: < 5.8 µL/min/mg | predicted hepatic clearance, rat [1]: < 11 mL/min/kg | Fa × Fg ([2]; 50% ASD): 15.8 (17.1, 14.5) % | Oral F ([2]; 50% ASD): 8.1 (8.8, 7.5) % | Fa × Fg ([2]; amorphous, solution): 14.7 (12.3, 17.6) % | Oral F ([2]; amorphous, solution): 7.7 (6.3,9.0) %
